Measured values taken from patent publication US4233217A, “Substituted 1,2,4,5-tetrahydro-3H, 3 benzazepines” (priority 1979, dated 1980).
Counter-ions that a name gives are not always drawn.

Experiments:
[1] = I.P. symptomatology: highest tolerated dose and median lethal dose (Table IV); assay type: in vivo
in vivo = details: po
[2] = Mouse tail stimulation (MTS) (Table IV); assay type: in vivo; parameters: unit not given here; details: S.C.
Morphine Analgesia = assay type: in vivo, rat; details: for narcotic antagonist potency relative to pentazocine: compared with pentazocine, Table II
[3] = Analgesic activity summarized over hot plate and writhing methods (Table I); details: for analgesic activity, ranking among tested compounds / separation between effective dose and toxic or lethal doses: Table I; for separation between effective dose and toxic or lethal doses: therapeutic index
[4] = Narcotic antagonism (Table IV); assay type: in vivo; details: I.P.
[5] = Local anesthetic sciatic block (Table IV); assay type: in vivo; details: 1%
[6] = Writhing analgesia (Table I); assay type: in vivo; details: oral; vs pentazocine

Question: With `Oc1ccc2c(c1)CCN(C[C@H]1C[C@@H]1c1ccccc1)CC2` (relative stereo) [Example 30, 7-Hydroxy-3(trans-2-phenylcyclopropylmethyl)-1,2,4,5-tetrahydro-3H,3-benzazepine] as the compound, how does the LD50 ([1]; in vivo, ip, I.P.) read?
Answer: The LD50 was > 1000 mg/kg.

Question: Which “LD50 (median lethal dose)” value ([1]; I.P., hydrochloride) does the source give for `CC1Cc2ccccc2CCN1` (single isomer, unassigned; (+)) [Example 49, (+)-2-Methyl-1,2,4,5-tetrahydro-3H,3-benzazepine hydrochloride] here?
Answer: The value was 200 mg/kg.

Question: Which “LD50 (median lethal dose)” value ([1]; I.P.) does the source give for `CC1Cc2ccccc2CCN1` (single isomer, unassigned; (-)) [Example 48, (-)-2-Methyl-1,2,4,5-tetrahydro-3H,3-benzazepine] here?
Answer: Its value is 60 mg/kg.

Question: Which “LD50 (median lethal dose)” value ([1]; I.P., hydrochloride) does the source give for `CC1Cc2ccccc2CCN1C` (single isomer, unassigned; (-)) [Example 54, (-)-2,3-Dimethyl-1,2,4,5-tetrahydro-3H,3-benzazepine hydrochloride] here?
Answer: The value was 60 mg/kg.

Question: With `COc1ccc2c3c1O[C@H]1[C@@H](O)C=C[C@H]4[C@@H](C2)N(C)CC[C@@]341` [Codeine] as the compound, how does the LD50 (in vivo) read?
Answer: The LD50 was 540 mg/kg.

Question: For `COc1ccc2c(c1)CCNCC2` [Example 1, 7-Methoxy-1,2,4,5-tetrahydro-3H,3-benzazepine], which “MTS (mouse tail stimulation)” value [2] is on record?
Answer: The value was > 3.

Question: With `CC(C)=CCN1CCc2ccc(O)cc2CC1` [Example 4, 3-(3,3-Dimethylallyl)-7-hydroxy-1,2,4,5-tetrahydro-3H,3-benzazepine] as the compound, how does the “narcotic antagonist potency relative to pentazocine” value (Morphine Analgesia) read?
Answer: Its value is “more potent antagonist than pentazocine”.

Question: And the “MTS (mouse tail stimulation)” value [2]?
Answer: Its value is > 56.

Question: With `CC(=O)Oc1ccc2c(c1)CCN(CC=C(C)C)CC2` [Example 5, 7-Acetoxy-3-(3,3-dimethylallyl)-1,2,4,5-tetrahydro-3H,3-benzazepine hydrochloride] as the compound, how does the “MTS (mouse tail stimulation)” value [2] read?
Answer: The value was > 30.

Question: Which “narcotic antagonist potency relative to pentazocine” value (Morphine Analgesia) does the source give for `C=CCN1CCc2ccc(OC)cc2CC1` [Example 14, 3-Allyl-7-methoxy-1,2,4,5-tetrahydro-3H,3-benzazepine] here?
Answer: Its value is “about equipotent to pentazocine”.

Question: Which oral analgesic activity [3] does the source give for `COc1ccc2c(c1)CCN(C)CC2` [Example 18, 7-Methoxy-3-methyl-1,2,4,5-tetrahydro-3H,3-benzazepine] here?
Answer: Its oral analgesic activity is “active by the oral route”.

Question: For `COc1ccc2c(c1)CCN(CCc1ccccc1)CC2` [Example 24, 7-Methoxy-3-phenethyl-1,2,4,5-tetrahydro-3H,3-benzazepine], which “narcotic antagonist potency relative to pentazocine” value (Morphine Analgesia) is on record?
Answer: The value was “about equipotent to pentazocine”.

Question: What about the MTD ([1]; in vivo, ip, I.P. symptomatology, read-out: HTD (highest tolerated dose)) of the same compound?
Answer: Its MTD is 30 mg/kg.

Question: What about the “MTS (mouse tail stimulation)” value [2] of the same compound?
Answer: The value was 5.

Question: What about the “Narcotic Antagonism” value [4] of the same compound?
Answer: Its value is “Positive”.

Question: And the “analgesic activity, ranking among tested compounds” value [3]?
Answer: The value was “most active compounds”.

Question: What about the “separation between effective dose and toxic or lethal doses” value [3] of the same compound?
Answer: The value was “greatest separation between effective dose and toxic or lethal doses”.

Question: Which “HNSD (Highest Non Symptomatic Dose)” value (IP (Intraperitoneal)) does the source give for `Oc1ccc2c(c1)CCN(CCc1ccccc1)CC2` [Example 25, 7-Hydroxy-3-phenethyl-1,2,4,5-tetrahydro-3H,3-benzazepine] here?
Answer: Its value is 55 mg/kg.

Question: Which “narcotic antagonist potency relative to pentazocine” value (Morphine Analgesia) does the source give for `COc1ccc2c(c1)CCN(CC=Cc1ccccc1)CC2` [Example 28, 7-Methoxy-3-(3-phenylallyl)-1,2,4,5-tetrahydro-3H,3-benzazepine] here?
Answer: The value was “about equipotent to pentazocine”.

Question: And the “MTS (mouse tail stimulation)” value [2]?
Answer: The value was 10.

Question: And the oral analgesic activity [3]?
Answer: Its oral analgesic activity is “active by the oral route”.

Question: What does the source list for `COc1ccc2c(c1)CCN(CCN1CCN(c3ccccc3)CC1)CC2` [Example 31, 7-Methoxy-3-[2-(4-phenyl-1-piperazinyl)ethyl]-1,2,4,5-tetrahydro-3H,3-benzazepine]?
Answer: MTS (mouse tail stimulation) [2]: 20; analgesic activity, ranking among tested compounds [3]: most active compounds; separation between effective dose and toxic or lethal doses [3]: greatest separation between effective dose and toxic or lethal doses

Question: With `CC(C)=CCN1CCc2ccc(O)cc2CC1C` (stereo not shown) [Example 34, 3-(3,3-Dimethylallyl)-8-hydroxy-2-methyl-1,2,4,5-tetrahydro-3H,3-benzazepine hydrochloride] as the compound, how does the “MTS (mouse tail stimulation)” value [2] read?
Answer: The value was > 40.

Question: For `COc1ccc2c(c1)CC(C)N(CCc1ccccc1)CC2` (stereo not shown) [Example 36, 8-Methoxy-2-methyl-3-phenethyl-1,2,4,5-tetrahydro-3H,3-benzazepine hydrochloride], which “MTS (mouse tail stimulation)” value [2] is on record?
Answer: The value was 10.

Question: And the “Local Anesthetic Sciatic Block” value [5]?
Answer: Its value is “Insoluable”.

Question: Which “writhing activity relative to pentazocine” value [6] does the source give for `c1ccc2c(c1)CCN(CC1CC1)CC2` [Example 37, 3-Cyclopropylmethyl-1,2,4,5-tetrahydro-3H,3-benzazepine hydrochloride] here?
Answer: The value was “approximately twice as active as pentazocine”.

Question: And the “MTS (mouse tail stimulation)” value [2]?
Answer: Its value is 10.

Question: What about the oral analgesic activity [3] of the same compound?
Answer: Its oral analgesic activity is “active by the oral route”.

Question: With `C=CCN1CCc2ccc(OC)cc2CC1C` (stereo not shown) [Example 38, 3-Allyl-8-methoxy-2-methyl-1,2,4,5-tetrahydro-3H,3-benzazepine hydrochloride] as the compound, how does the “MTS (mouse tail stimulation)” value [2] read?
Answer: Its value is > 10.

Question: With `CC1Cc2cc(O)ccc2CCN1CC1CC1` (stereo not shown) [Example 41, 3-Cyclopropylmethyl-8-hydroxy-2-methyl-1,2,4,5-tetrahydro-3H,3-benzezepine hydrochloride] as the compound, how does the “MTS (mouse tail stimulation)” value [2] read?
Answer: The value was > 30.

Question: Which “Antagonism of Morphine Analgesia, times more active than compounds listed above” value (Morphine Analgesia; rat, in vivo, sc) does the source give for `C=CCN1CC[C@]23c4c5ccc(O)c4O[C@H]2[C@@H](O)C=C[C@H]3[C@H]1C5` [Nalorphine, reference compound] here?
Answer: Its value is 20-100.

Question: Which LDSO (IP) does the source give for `CC(C)=CCN1CCC2(C)c3cc(O)ccc3CC1C2C` (stereo not shown) [Pentazocine, reference compound] here?
Answer: The LDSO was > 500 mg/kg.
